Reference: patent US8853242B2, “Nitrogenous-ring acylguanidine derivative” (Astellas Pharma Inc., priority 2009, dated 2014)

Legend:
Male ICR mouse [1] = assay: Hyperactivity (quantity of motion) induced by MK-801 in mice; type: in vivo; details: MK-801 0.3 mg/kg, P<0.05
Experimental: (§1) The improvement effect of compound of formula (I) on schizophrenia was evaluated by measuring the quantity of motion inhibited by administration of the compound in a model in which the symptoms were induced by methamphetamine (hereinafter abbreviated as MAP) and MK-801.
(§2) The animal was taken out of a breeding cage, orally administered with a test compound, and then placed into a cage for breeding. After 30 minutes, the animal was put into a cage for measurement, and the quantity of motion with the test compound alone was measured. Further, after 30 to 90 minutes, the animal was taken out, and subcutaneously or intraperitoneally administered with a drug for increasing the quantity of motion (MAP; 1.5 mg/kg or MK-801; 0.3 mg/kg, dissolved in physiological saline, respectively). Then, the quantity of motion for a certain period of time (60 minutes) was measured using a device for measuring the quantity of motion (CompACT AMS manufactured by Muromachi Kikai Co., Ltd.) by means of an infrared sensor.
For a normal mouse (a mouse administered with physiological saline) and a mouse administered with a drug for increasing the quantity of motion, a Student's T test was performed for evaluation for each interval. For a group administered with the test compound, an assay was performed using a solvent (vehicle) group and a Dunnett's T test. For the evaluation, if there was a significant difference (P<0.05), it was considered that there is an effect.

human 5-HT5A receptor = human 5-HT5A receptor (Homo sapiens (Human), UniProt P47898); assay: Test on a human 5-HT5A receptor binding inhibition ([3H]5-CT); details: membrane from HEK293 cells expressing human 5-HT5A receptor, Ki calculated from IC50
Chain of human 5-HT5A receptor (P47898 whole entry): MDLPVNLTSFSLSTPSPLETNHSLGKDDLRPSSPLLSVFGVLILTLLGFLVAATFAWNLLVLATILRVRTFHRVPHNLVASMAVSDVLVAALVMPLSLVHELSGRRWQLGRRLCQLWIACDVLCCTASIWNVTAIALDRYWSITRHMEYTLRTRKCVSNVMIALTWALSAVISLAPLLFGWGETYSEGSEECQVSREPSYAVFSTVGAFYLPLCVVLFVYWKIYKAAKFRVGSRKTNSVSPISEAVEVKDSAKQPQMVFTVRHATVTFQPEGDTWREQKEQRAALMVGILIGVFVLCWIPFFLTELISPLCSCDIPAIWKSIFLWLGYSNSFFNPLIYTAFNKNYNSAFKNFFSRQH
Experimental: The ORF (open reading frame; protein coding region) of a human 5-HT5A receptor (Genbank AF498985) was cloned from a human hippocampus cDNA library, and then inserted into a pCR2.1 vector (Invitrogen), and Escherichia coli containing the plasmid was cultured in a large amount. Next, the full-length cDNA sequence of the human 5-HT5A receptor was analyzed, and recombined into a pCDNA3.1 vector (Invitrogen) as an expression vector and cultured in a large amount. HEK293 established cells (ATCC) derived from the human fetal kidney were seeded, the expression plasmid (1 μg) obtained above were added thereto with LIPOFECTAMINE 2000 (Invitrogen; 2 μl), the gene was transfected into HEK293 cells, and the expression cells were screened with a drug-resistant marker, Geneticin (G418 sulfate 500 μg/ml; Kanto Chemical Co., Inc.). Thus prepared recombinant cells which expressed the gene were cultured in a medium containing D-MEM (Dulbecco's modified eagle medium, Sigma), 10% FCS (Fetal calf serum: fetal bovine serum), 1% Pc./Sm (Penicillin/Streptomycin, Invitrogen), and 500 μg/ml G418 for 3 days. These experimental operations followed a manual for gene operation experiment and an instruction appended in a reagent, and the like, such as a known method (Sambrook, J. et al, Molecular Cloning-A Laboratory Manual”, Cold Spring Harabor laboratory, NY, 1989).
HEK293 cells for forced expressions of a human 5-HT5A receptor were cultured in a F500 plate, and scraped with a scraper. After centrifugation, the precipitate was collected, and an incubation buffer (50 mM Tris (HCl) (pH 7.4), 10 mM MgSO4, and 0.5 mM EDTA (ethylenediamine tetraacetic acid)) was added thereto. After homogenization, it was further centrifuged, and the incubation buffer was added to the precipitate, followed by thoroughly suspending. The operation was repeated, and protein concentration was measured, thereby completing preparation of the membrane.
A solution of the compound to be tested and 100 μM 5-CT (5-carboxamidetriptamine) in DMSO was added to a 96-well plate at 2 μl/well, suspended in an incubation buffer, and a membrane from HEK293 cells for forced expressions of a human 5-HT5A receptor prepared at 200 μg/ml was added at 100 μl/well. After incubation at room temperature for 15 minutes, a [^3H]5-CT solution (2 nM [^3H]5-CT, incubation buffer) was added thereto at 100 μl/well.
Separately, 100 μl of the solution was distributed into a liquid scintillation vial, and 2 ml of Aquasol II (registered trademark) was added thereto, followed by stirring. Then, radioactivity was measured by a liquid scintillation counter. It was incubated at 37° C. for 60 minutes. The reaction mixture was sucked into 96-well GF/C filter plate that had been pre-treated with 0.2% polyethyleneimine, and washed six times with an ice-cooled, 50 mM Tris (pH 7.5) buffer. The GF/C filter plate was dried.
Microscint TMPS (registered trademark) was added thereto at 40 μl/well. Radioactivity remaining on the GF/C filter plate was measured by a top counter.
The [^3H]5-CT binding inhibiting activity by the compound to be tested in each experiment was determined as an IC50 value with a radioactivity upon addition of DMSO alone being 0% inhibition, and a radioactivity upon addition of 1 μM 5-CT being 100% inhibition. Separately, Ki values were calculated from the Kd value of the [^3H]5-CT determined from Scatchard analysis, by the following equation. Ki=IC50(1+Concentraion of ligand added/Kd(4.95 nM))

Male ddY mouse = assay: Spontaneous alternation behavior (Y-maze) induced by Scoporamine in mice; type: in vivo; details: Scoporamine 0.5 mg/kg i.p.
Experimental: The improvement effect of compound of formula (I) on cognitive impairment of dementia and schizophrenia was evaluated by a known test method as a model with short-term learning disorder.
After 10 to 30 minutes from oral administration of the test compound, 0.5 mg/kg of Scoporamine or 0.15 mg/kg of MK-801 (in the case of a normal group, physiological saline was administered) was intraperitoneally administered. After 20 minutes, the test was conducted. In addition, solvent (vehicle) was orally administered to the normal group (to which physiological saline was administered) and to the control group (to which 0.5 mg/kg of Scoporamine or 0.15 mg/kg of MK-801 was administered), when the test compound was administered.
A mouse was placed at the end of one arm of a Y-maze having arms with the same length in three directions, and then allowed to explore freely and the number of arm entries was counted for 8 minutes. Further, spontaneous alternation behavior was defined as entries into all three different arms on consecutive occasions, and the ratio of the number of instances of this behavior to the total number of the entries was calculated as an alternation rate by the following formula: Alternation rate(%)=Number of spontaneous alternation behaviors/(Total number of entries−2)×100.
If a significant difference between the normal group and the control group (Student's T test) was approved in the alternation rate (%), it was considered to have learning disorder by the administration of Scoporamine or MK-801. By carrying out a Dunnett's test on the group administered with the test compound with respect to the control group, the presence or absence of effect of the test compound on learning disorder was evaluated. For each assay, it was considered that there was a tendency when p<0.10 and there was a significant difference when p<0.05.

Male ICR mouse [2] = assay: Hyperactivity (quantity of motion) induced by methamphetamine (MAP) in mice; type: in vivo; details: oral dose 0.1 mg/kg; MAP 1.5 mg/kg; P<0.05
Experimental: as §1, §2
For a normal mouse (a mouse administered with physiological saline) and a mouse administered with a drug for increasing the quantity of motion, a Student's T test was performed for evaluation for each interval. For a group administered with the test compound, an assay was performed using a solvent (vehicle) group and a Dunnett's T test. […]

| SMILES | Ki (human 5-HT5A receptor; [3H]5-CT binding) [nM] | other results |
| --- | --- | --- |
| NC(N)=NC(=O)c1ccc2ncc(Cl)c(-c3ccc(F)cc3)c2c1 [Example 73] | 1 to 10 | hyperactivity induced by MK-801 (Male ICR mouse [1]; oral dose 0.1 mg/kg): significantly inhibited |
| NC(N)=NC(=O)c1ccc2c(F)cnc(-c3ccccc3F)c2c1 [Example 160] |  | hyperactivity induced by MK-801 (Male ICR mouse [1]; oral dose 0.01 mg/kg): significantly inhibited; Ki (human 5-HT5A receptor; [3H]5-CT binding inhibition): 3.3 nM; spontaneous alternation behavior induced by Scoporamine (Male ddY mouse; oral dose 0.001 mg/kg): significantly inhibited |
| Cc1cnc(-c2ccccc2F)c2cc(C(=O)N=C(N)N)ccc12 [Example 192] | 1 to 10 | hyperactivity induced by MK-801 (Male ICR mouse [1]; oral dose 0.01 mg/kg): significantly inhibited; Ki (human 5-HT5A receptor; [3H]5-CT binding inhibition): 1.8 nM; spontaneous alternation behavior induced by Scoporamine (Male ddY mouse; oral dose 0.003 mg/kg): significantly inhibited |
| COc1ccc(F)c(-c2ccnc3c(C)cc(C(=O)N=C(N)N)cc23)c1F [Example 78] | 10 to 100 |  |
| NC(N)=NC(=O)c1ccc2nccc(-c3ccc(Cl)cc3F)c2c1 [Example 14] | 10 to 100 |  |
| NC(N)=NC(=O)c1ccc2nccc(-c3c(F)cccc3Cl)c2c1 [Example 11] | 1 to 10 |  |
| Cc1cnc2ccc(C(=O)N=C(N)N)cc2c1-c1cccc(Cl)c1Cl [Example 24] | 1 to 10 |  |
| COc1cc(F)ccc1-c1ncc(Cl)c2ccc(C(=O)N=C(N)N)cc12 [Example 174] | 10 to 100 |  |
| Cc1nc2ccc(C(=O)N=C(N)N)cc2c(-c2ccccc2F)c1C [Example 105] | 10 to 100 |  |
| NC(N)=NC(=O)c1ccc2c(F)cnc(-c3c(F)cncc3F)c2c1 [Example 157] | 1 to 10 | hyperactivity induced by MK-801 (Male ICR mouse [1]; oral dose 0.03 mg/kg): significantly inhibited; Ki (human 5-HT5A receptor; [3H]5-CT binding inhibition): 5.3 nM; spontaneous alternation behavior induced by Scoporamine (Male ddY mouse; oral dose 0.001 mg/kg): significantly inhibited |
| Cc1cc(C(=O)N=C(N)N)cc2c(C3=CCCC3)ccnc12 [Example 75] | 10 to 100 |  |
| N#Cc1ccc(-c2nccc3ccc(C(=O)N=C(N)N)cc23)c(F)c1 [Example 141] | 1 to 10 |  |
| Cc1nc2ccc(C(=O)N=C(N)N)cc2c(-c2ccccc2Cl)c1Cl [Example 130] | 1 to 10 |  |
| NC(N)=NC(=O)c1ccc2c(F)cnc(-c3c(F)cccc3F)c2c1 [Example 148] |  | hyperactivity induced by MK-801 (Male ICR mouse [1]; oral dose 0.03 mg/kg): significantly inhibited; hyperactivity induced by MAP (Male ICR mouse [2]): significantly inhibited; Ki (human 5-HT5A receptor; [3H]5-CT binding inhibition): 1.4 nM; spontaneous alternation behavior induced by Scoporamine (Male ddY mouse; oral dose 0.01 mg/kg): significantly inhibited |
| NC(N)=NC(=O)c1ccc2c(CO)cnc(-c3c(F)cccc3F)c2c1 [Example 224] | 10 to 100 |  |
| NC(N)=NC(=O)c1ccc2ncc(C(F)(F)F)c(-c3ccc(F)cc3F)c2c1 [Example 86] | 10 to 100 |  |
| Cc1cc(C(=O)N=C(N)N)cc2c(C3CC3)c(Cl)cnc12 [Example 103] | 10 to 100 |  |
| NC(N)=NC(=O)c1ccc2c(Cl)cnc(-c3ccc(Cl)cc3F)c2c1 [Example 195] | 1 to 10 |  |

| SMILES | Ki (human 5-HT5A receptor; [3H]5-CT binding) [nM] | other results |
| --- | --- | --- |
| Cc1cc(C(=O)N=C(N)N)cc2c(-c3ccc(F)cc3F)ccnc12 [Example 44] | 1 to 10 |  |
| NC(N)=NC(=O)c1ccc2c(Cl)cnc(-c3c(F)cc(F)cc3F)c2c1 [Example 142] | 1 to 10 |  |
| COc1cc(F)c(-c2ccnc3c(C)cc(C(=O)N=C(N)N)cc23)c(F)c1 [Example 58] | 1 to 10 |  |
| Cc1nc2ccc(C(=O)N=C(N)N)cc2c(-c2c(F)cc(F)cc2F)c1C [Example 114] |  | Ki (human 5-HT5A receptor; [3H]5-CT binding inhibition): 3.7 nM |
| COc1cc(C#N)ccc1-c1c(C)c(C)nc2ccc(C(=O)N=C(N)N)cc12 [Example 120] | 10 to 100 |  |
| NC(N)=NC(=O)c1ccc2c(Cl)cnc(-c3cccc(Cl)c3Cl)c2c1 [Example 100] | 10 to 100 |  |
| Cc1cnc(-c2c(F)cccc2F)c2cc(C(=O)N=C(N)N)ccc12 [Example 170] |  | Ki (human 5-HT5A receptor; [3H]5-CT binding inhibition): 1.9 nM |
| NC(N)=NC(=O)c1ccc2ncc(Cl)c(C3CC3)c2c1 [Example 76] | 10 to 100 |  |
| NC(N)=NC(=O)c1ccc2c(Cl)cnc(-c3c(F)cccc3F)c2c1 [Example 162] |  | Ki (human 5-HT5A receptor; [3H]5-CT binding inhibition): 1.2 nM |
| COc1cc(Cl)ccc1-c1ncc(F)c2ccc(C(=O)N=C(N)N)cc12 [Example 204] | 10 to 100 |  |
| Cc1nc2ccc(C(=O)N=C(N)N)cc2c(-c2ccc(F)cc2)c1C [Example 118] | 10 to 100 |  |
| Cc1cc(C(=O)N=C(N)N)cc2c(-c3c(Cl)cccc3Cl)ccnc12 [Example 55] | 1 to 10 |  |
| Cc1cc(C(=O)N=C(N)N)cc2c(-c3cccc(Cl)c3Cl)ccnc12 [Example 46] | 1 to 10 |  |
| COc1cc(Cl)ccc1-c1ccnc2c(C)cc(C(=O)N=C(N)N)cc12 [Example 77] | 1 to 10 |  |
| Cc1cc(-c2ccc(F)cc2Cl)c2cc(C(=O)N=C(N)N)cc(C)c2n1 [Example 91] | 1 to 10 |  |
| Cc1cc(-c2c(F)cc(F)cc2Cl)c2cc(C(=O)N=C(N)N)ccc2n1 [Example 124] | 10 to 100 |  |
| NC(N)=NC(=O)c1ccc2c(F)cnc(-c3c(F)cc(F)cc3F)c2c1 [Example 144] | 1 to 10 |  |
